Assay results reported in the kinase profiling compilation of Christmann-Franck et al. (2016).

How the values were obtained:
Test in all cases: KINOMEscan competition binding
Settings in all cases: compound 10.0 µM
[1] = target: TAOK2 (human) (UniProt Q9UL54)
[2] = tested on: CPK1 (P.falciparum)
[3] = target: HIPK3 (human) (UniProt Q9H422)
[4] = tested on: EGFR (human), P00533 [P753S; 747-752 del]
[5] = target: GRK7 (human) (UniProt Q8WTQ7)
[6] = target: IRAK1 (human) (UniProt P51617)
[7] = target: STK39 (human) (UniProt Q9UEW8)
[8] = target: EGFR (human) (UniProt P00533)
[9] = target: CDKL5 (human) (UniProt O76039)
[10] = target: PLK2 (human) (UniProt Q9NYY3)
[11] = target: YSK4 (human) (UniProt Q56UN5)
[12] = target: HUNK (human) (UniProt P57058)
[13] = target: MAP3K13 (human) (UniProt O43283)
[14] = tested on: PIK3CA (human), P42336 [H1047Y]
[15] = target: MAK (human) (UniProt P20794)
[16] = target: GRK1 (human) (UniProt Q15835)
[17] = target: TIE1 (human) (UniProt P35590)
[18] = target: NEK11 (human) (UniProt Q8NG66)
[19] = target: CASK (human) (UniProt O14936)
[20] = target: HIPK2 (human) (UniProt Q9H2X6)
[21] = target: PIP5K1C (human) (UniProt O60331)
[22] = target: PIK3C2G (human) (UniProt O75747)
[23] = target: MAST1 (human) (UniProt Q9Y2H9)
[24] = target: MAP2K5 (human) (UniProt Q13163)
[25] = target: PIK3CA (human) (UniProt P42336)
[26] = tested on: EGFR (human), P00533 [L861Q]
[27] = target: CRK2 (P.falciparum) (UniProt P61075)
[28] = target: IRAK4 (human) (UniProt Q9NWZ3)
[29] = target: MAP3K15 (human) (UniProt Q6ZN16)
[30] = target: SGK3 (human) (UniProt Q96BR1)
[31] = target: VRK2 (human) (UniProt Q86Y07)
[32] = target: DSTYK (human) (UniProt Q6XUX3)
[33] = tested on: PIK3CA (human), P42336 [E545K]
[34] = target: CDKL3 (human) (UniProt Q8IVW4)
[35] = target: RPS6KB1 (human) (UniProt P23443)
[36] = target: CDK2 (human) (UniProt P24941)
[37] = target: CSNK1A1 (human) (UniProt P48729)
[38] = target: GRK4 (human) (UniProt P32298)
[39] = target: ERBB3 (human) (UniProt P21860)
[40] = target: EIF2AK1 (human) (UniProt Q9BQI3)

Chain of CDKL3 (human) (Q8IVW4 whole entry, looked up): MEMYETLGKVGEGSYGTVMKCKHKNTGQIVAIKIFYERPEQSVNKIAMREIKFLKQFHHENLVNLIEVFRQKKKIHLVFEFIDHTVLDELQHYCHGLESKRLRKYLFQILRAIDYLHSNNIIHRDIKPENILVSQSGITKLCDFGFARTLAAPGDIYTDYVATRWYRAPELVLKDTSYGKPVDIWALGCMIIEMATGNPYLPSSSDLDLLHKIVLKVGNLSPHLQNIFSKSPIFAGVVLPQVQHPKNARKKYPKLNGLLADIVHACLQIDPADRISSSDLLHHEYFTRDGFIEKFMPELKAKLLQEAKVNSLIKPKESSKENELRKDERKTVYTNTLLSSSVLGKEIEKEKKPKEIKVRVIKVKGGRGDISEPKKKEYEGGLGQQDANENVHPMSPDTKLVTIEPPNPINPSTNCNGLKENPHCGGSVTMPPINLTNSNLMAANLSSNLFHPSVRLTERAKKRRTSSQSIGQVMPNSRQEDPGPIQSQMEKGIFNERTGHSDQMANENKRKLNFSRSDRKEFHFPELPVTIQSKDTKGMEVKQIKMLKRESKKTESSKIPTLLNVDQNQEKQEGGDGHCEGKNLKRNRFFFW
Chain of MAST1 (human) (Q9Y2H9 whole entry, looked up): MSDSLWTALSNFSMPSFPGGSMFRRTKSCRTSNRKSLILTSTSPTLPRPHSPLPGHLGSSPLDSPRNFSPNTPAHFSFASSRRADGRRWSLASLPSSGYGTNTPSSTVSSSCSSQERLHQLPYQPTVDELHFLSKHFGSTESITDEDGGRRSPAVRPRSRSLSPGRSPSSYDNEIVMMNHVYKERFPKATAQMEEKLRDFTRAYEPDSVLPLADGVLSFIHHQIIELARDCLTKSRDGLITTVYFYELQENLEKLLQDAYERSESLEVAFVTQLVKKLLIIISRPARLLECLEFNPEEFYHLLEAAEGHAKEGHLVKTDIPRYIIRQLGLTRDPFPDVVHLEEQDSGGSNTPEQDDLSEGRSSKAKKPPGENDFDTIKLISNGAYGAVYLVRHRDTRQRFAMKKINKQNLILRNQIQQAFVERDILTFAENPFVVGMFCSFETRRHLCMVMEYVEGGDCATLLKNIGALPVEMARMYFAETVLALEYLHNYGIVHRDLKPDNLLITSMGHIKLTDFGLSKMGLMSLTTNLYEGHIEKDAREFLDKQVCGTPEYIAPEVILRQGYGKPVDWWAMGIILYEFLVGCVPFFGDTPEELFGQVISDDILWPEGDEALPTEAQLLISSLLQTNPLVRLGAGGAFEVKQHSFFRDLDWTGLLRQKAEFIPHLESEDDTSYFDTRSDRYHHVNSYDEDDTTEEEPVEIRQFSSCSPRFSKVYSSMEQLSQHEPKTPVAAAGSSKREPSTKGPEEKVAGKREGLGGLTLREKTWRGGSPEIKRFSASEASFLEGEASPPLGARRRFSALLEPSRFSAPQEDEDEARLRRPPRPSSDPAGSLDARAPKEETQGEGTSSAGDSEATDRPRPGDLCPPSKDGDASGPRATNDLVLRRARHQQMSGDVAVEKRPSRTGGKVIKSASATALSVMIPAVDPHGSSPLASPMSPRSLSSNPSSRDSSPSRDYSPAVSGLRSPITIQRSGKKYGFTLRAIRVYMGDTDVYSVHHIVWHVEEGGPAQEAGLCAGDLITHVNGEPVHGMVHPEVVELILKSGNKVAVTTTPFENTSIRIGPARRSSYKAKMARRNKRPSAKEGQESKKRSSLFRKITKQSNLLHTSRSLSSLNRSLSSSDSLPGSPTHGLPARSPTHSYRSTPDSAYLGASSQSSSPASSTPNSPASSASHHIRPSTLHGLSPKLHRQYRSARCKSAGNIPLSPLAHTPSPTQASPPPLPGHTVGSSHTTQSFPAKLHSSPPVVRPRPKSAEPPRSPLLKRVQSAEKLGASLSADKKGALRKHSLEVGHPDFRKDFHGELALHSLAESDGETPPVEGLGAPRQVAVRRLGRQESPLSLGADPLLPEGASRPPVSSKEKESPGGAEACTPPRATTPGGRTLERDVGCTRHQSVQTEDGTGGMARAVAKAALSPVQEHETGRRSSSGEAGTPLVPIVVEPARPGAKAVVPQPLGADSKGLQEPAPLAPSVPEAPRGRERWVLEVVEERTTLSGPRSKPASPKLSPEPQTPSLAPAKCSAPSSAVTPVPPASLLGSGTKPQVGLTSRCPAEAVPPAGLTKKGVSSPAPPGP
Chain of HIPK2 (human) (Q9H2X6 whole entry, looked up): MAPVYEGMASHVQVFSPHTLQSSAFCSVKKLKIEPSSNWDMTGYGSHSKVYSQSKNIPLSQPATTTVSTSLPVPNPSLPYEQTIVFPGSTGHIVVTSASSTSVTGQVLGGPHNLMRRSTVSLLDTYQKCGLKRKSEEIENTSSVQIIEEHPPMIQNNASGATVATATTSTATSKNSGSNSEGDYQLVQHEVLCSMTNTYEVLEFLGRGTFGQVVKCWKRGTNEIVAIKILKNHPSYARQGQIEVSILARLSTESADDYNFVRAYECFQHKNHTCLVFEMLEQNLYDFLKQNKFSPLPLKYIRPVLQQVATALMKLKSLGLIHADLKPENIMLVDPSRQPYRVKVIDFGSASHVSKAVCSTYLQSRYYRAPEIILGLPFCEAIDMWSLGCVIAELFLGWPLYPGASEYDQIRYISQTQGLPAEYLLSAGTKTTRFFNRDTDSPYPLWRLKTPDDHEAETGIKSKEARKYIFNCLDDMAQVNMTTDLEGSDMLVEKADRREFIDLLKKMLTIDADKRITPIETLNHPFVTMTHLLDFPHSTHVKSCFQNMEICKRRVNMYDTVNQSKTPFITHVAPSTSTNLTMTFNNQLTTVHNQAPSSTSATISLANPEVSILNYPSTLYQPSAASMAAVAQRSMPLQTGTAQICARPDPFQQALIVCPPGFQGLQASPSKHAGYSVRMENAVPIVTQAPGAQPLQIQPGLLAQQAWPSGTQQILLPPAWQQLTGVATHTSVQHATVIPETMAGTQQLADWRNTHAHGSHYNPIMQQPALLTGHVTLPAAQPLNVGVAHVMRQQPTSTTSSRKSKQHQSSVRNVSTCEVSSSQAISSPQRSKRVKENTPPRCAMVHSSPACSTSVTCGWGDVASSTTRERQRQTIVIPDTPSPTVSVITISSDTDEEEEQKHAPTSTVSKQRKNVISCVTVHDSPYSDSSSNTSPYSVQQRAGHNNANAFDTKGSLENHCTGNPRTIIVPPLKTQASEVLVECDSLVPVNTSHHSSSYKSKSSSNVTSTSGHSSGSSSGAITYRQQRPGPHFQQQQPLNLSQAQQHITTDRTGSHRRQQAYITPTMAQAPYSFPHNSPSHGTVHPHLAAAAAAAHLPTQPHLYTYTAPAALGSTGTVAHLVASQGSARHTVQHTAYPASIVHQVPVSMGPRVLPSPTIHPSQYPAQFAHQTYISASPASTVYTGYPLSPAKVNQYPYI
Chain of MAP3K13 (human) (O43283 whole entry, looked up): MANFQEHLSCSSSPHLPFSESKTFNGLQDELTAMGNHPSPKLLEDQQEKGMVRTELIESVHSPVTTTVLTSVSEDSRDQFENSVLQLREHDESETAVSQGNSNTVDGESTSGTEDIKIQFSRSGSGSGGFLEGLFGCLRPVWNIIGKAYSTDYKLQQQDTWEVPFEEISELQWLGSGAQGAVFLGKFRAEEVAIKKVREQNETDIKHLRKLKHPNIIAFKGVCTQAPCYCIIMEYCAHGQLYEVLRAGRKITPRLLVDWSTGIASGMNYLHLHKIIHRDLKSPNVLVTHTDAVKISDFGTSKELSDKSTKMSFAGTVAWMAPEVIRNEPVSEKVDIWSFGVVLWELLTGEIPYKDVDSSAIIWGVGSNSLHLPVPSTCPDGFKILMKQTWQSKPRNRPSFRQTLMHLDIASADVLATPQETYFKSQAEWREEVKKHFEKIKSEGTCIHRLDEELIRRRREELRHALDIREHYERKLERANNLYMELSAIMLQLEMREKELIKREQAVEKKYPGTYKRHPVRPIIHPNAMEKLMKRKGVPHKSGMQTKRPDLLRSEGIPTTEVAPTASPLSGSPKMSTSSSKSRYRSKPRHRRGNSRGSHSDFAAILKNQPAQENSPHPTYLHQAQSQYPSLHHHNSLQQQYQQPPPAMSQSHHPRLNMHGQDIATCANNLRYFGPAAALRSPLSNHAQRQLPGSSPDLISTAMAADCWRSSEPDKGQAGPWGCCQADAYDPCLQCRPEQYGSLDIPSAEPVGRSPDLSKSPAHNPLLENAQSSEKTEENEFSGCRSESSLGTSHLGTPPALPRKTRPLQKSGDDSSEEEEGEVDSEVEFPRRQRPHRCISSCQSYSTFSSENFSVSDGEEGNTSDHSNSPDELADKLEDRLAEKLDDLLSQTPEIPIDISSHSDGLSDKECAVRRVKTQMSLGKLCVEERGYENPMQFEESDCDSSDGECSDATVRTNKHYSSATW
Chain of MAP2K5 (human) (Q13163 whole entry, looked up): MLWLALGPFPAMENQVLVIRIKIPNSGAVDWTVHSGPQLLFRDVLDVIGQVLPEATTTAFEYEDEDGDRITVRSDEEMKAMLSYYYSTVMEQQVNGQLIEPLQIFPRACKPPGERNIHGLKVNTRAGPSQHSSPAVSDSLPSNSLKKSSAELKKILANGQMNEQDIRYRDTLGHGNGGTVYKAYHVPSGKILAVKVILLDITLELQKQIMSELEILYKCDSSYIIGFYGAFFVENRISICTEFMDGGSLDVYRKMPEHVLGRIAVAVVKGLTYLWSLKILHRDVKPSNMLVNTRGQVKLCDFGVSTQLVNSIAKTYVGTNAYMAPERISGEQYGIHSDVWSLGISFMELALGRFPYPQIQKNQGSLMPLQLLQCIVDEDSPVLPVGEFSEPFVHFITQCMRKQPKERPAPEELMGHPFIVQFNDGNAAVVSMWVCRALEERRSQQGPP
Chain of CRK2 (P.falciparum) (P61075 whole entry, looked up): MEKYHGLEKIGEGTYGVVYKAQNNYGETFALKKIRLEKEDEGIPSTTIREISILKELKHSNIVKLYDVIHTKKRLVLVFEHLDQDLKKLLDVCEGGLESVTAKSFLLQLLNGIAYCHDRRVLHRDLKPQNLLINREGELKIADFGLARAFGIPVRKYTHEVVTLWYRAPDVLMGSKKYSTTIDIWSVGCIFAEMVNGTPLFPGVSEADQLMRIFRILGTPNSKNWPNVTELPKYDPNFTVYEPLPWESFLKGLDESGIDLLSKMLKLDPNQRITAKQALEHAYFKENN

Row | SMILES | kinase still bound, per cent of control [1] | kinase still bound, per cent of control [2] | kinase still bound, per cent of control [3] | kinase still bound, per cent of control [4] | kinase still bound, per cent of control [5] | kinase still bound, per cent of control [6] | kinase still bound, per cent of control [7] | kinase still bound, per cent of control [8] | kinase still bound, per cent of control [9] | kinase still bound, per cent of control [10] | kinase still bound, per cent of control [11] | kinase still bound, per cent of control [12] | kinase still bound, per cent of control [13] | kinase still bound, per cent of control [15] | kinase still bound, per cent of control [16] | kinase still bound, per cent of control [17] | kinase still bound, per cent of control [18] | kinase still bound, per cent of control [19] | kinase still bound, per cent of control [20] | kinase still bound, per cent of control [21] | other results
1 | C=CC(=O)Nc1cccc(Nc2nc(N[C@H]3CC[C@H](N(C)C)CC3)nc3c2ncn3C(C)C)c1 | 66% | 98% | 26% | 90% | 8.7% | 1.8% | 51% | 100% | 100% | 52% | 15% | 85% | 79% | 100% | 47% | 86% | 54% | 92% | 17% | 100% | kinase still bound, per cent of control [14]: 90%; kinase still bound, per cent of control [22]: 100%; kinase still bound, per cent of control [23]: 83%; kinase still bound, per cent of control [24]: 59%; kinase still bound, per cent of control [25]: 100%; kinase still bound, per cent of control [26]: 100%; kinase still bound, per cent of control [27]: 100%; kinase still bound, per cent of control [28]: 2.5%; kinase still bound, per cent of control [29]: 66%; kinase still bound, per cent of control [30]: 85%; kinase still bound, per cent of control [31]: 11%; kinase still bound, per cent of control [32]: 86%; kinase still bound, per cent of control [33]: 100%; kinase still bound, per cent of control [34]: 100%; kinase still bound, per cent of control [35]: 87%; kinase still bound, per cent of control [36]: 100%; kinase still bound, per cent of control [37]: 0.65%; kinase still bound, per cent of control [38]: 43%; kinase still bound, per cent of control [39]: 94%; kinase still bound, per cent of control [40]: 100%
2 | Cc1ccc(NC(=O)c2cccc(C(C)(C)C#N)c2)cc1Nc1ccc2ncn(C)c(=O)c2c1 | 72% | 0.75% | 86% | 19% | 91% | 75% | 100% | 37% | 93% | 99% | 0.85% | 100% | 100% | 100% | 100% | 11% | 94% | 96% | 73% | 75% | kinase still bound, per cent of control [14]: 100%; kinase still bound, per cent of control [22]: 88%; kinase still bound, per cent of control [23]: 100%; kinase still bound, per cent of control [24]: 0.7%; kinase still bound, per cent of control [25]: 100%; kinase still bound, per cent of control [26]: 34%; kinase still bound, per cent of control [27]: 94%; kinase still bound, per cent of control [28]: 83%; kinase still bound, per cent of control [29]: 100%; kinase still bound, per cent of control [30]: 100%; kinase still bound, per cent of control [31]: 100%; kinase still bound, per cent of control [32]: 78%; kinase still bound, per cent of control [33]: 100%; kinase still bound, per cent of control [34]: 100%; kinase still bound, per cent of control [35]: 100%; kinase still bound, per cent of control [36]: 100%; kinase still bound, per cent of control [37]: 100%; kinase still bound, per cent of control [38]: 100%; kinase still bound, per cent of control [39]: 100%; kinase still bound, per cent of control [40]: 84%
3 | Cc1ccc2nc(NCCN)c3ncc(C)n3c2c1 | 70% | 52% | 32% | 100% | 100% | 78% | 100% | 100% | 46% | 100% | 16% | 100% | 74% | 100% | 100% | 100% | 100% | 100% | 58% | 92% | kinase still bound, per cent of control [14]: 26%; kinase still bound, per cent of control [22]: 23%; kinase still bound, per cent of control [23]: 100%; kinase still bound, per cent of control [24]: 96%; kinase still bound, per cent of control [25]: 100%; kinase still bound, per cent of control [26]: 100%; kinase still bound, per cent of control [27]: 100%; kinase still bound, per cent of control [28]: 100%; kinase still bound, per cent of control [29]: 100%; kinase still bound, per cent of control [30]: 100%; kinase still bound, per cent of control [31]: 100%; kinase still bound, per cent of control [32]: 100%; kinase still bound, per cent of control [33]: 100%; kinase still bound, per cent of control [34]: 98%; kinase still bound, per cent of control [35]: 96%; kinase still bound, per cent of control [37]: 68%; kinase still bound, per cent of control [38]: 100%; kinase still bound, per cent of control [39]: 83%; kinase still bound, per cent of control [40]: 87%
4 | Cc1cc([C@@H](C)Nc2ccccc2C(=O)O)c2nc(N3CCOCC3)cc(=O)n2c1 | 94% | 62% | 89% | 100% | 57% | 90% | 100% | 96% | 74% | 99% | 100% | 81% | 100% | 67% | 100% | 100% | 100% | 92% | 79% | 63% | kinase still bound, per cent of control [22]: 7%; kinase still bound, per cent of control [23]: 100%; kinase still bound, per cent of control [24]: 100%; kinase still bound, per cent of control [26]: 100%; kinase still bound, per cent of control [27]: 98%; kinase still bound, per cent of control [28]: 100%; kinase still bound, per cent of control [29]: 87%; kinase still bound, per cent of control [30]: 86%; kinase still bound, per cent of control [31]: 100%; kinase still bound, per cent of control [32]: 100%; kinase still bound, per cent of control [34]: 90%; kinase still bound, per cent of control [35]: 72%; kinase still bound, per cent of control [36]: 93%; kinase still bound, per cent of control [37]: 63%; kinase still bound, per cent of control [38]: 90%; kinase still bound, per cent of control [39]: 100%; kinase still bound, per cent of control [40]: 97%
